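1) Cells in 96-well plates. 2) Compound, 48 h, 5 concentrations. 3) Linear interpolation between surrounding doses. 4) Unreached endpoint = highest concentration. GI50 = concentration required for 50% inhibition of growth. TGI marks complete inhibition of growth.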
Tests used:
Assay in all cases: inhibition of tumour cell growth, NCI panel, 48 h
[1] = test system: NCI/ADR-RES ovarian
[2] = test system: MOLT-4 leukemia
[3] = test system: M14 melanoma
[4] = test system: EKVX NSCLC
[5] = test system: ACHN renal
[6] = test system: SK-OV-3 ovarian
[7] = test system: OVCAR-5 ovarian
[8] = test system: UO-31 renal
[9] = test system: U251 CNS
[10] = test system: SR leukemia
[11] = test system: DU-145 prostate
[12] = test system: BT-549 breast
[13] = test system: T-47D breast
[14] = test system: K-562 leukemia
[15] = test system: MDA-MB-231 breast
[16] = test system: HCC-2998 colon
[17] = test system: RPMI-8226 leukemia
[18] = test system: SN12C renal
[19] = test system: SF-268 CNS
[20] = test system: KM12 colon
[21] = test system: OVCAR-8 ovarian
[22] = test system: SW-620 colon
[23] = test system: COLO 205 colon
[24] = test system: RXF 393 renal
[25] = test system: SK-MEL-5 melanoma
[26] = test system: HCT-116 colon
[27] = test system: OVCAR-4 ovarian
[28] = test system: UACC-62 melanoma
[29] = test system: A498 renal
[30] = test system: HCT-15 colon
[31] = test system: NCI-H23 lung
[32] = test system: HS 578T breast
[33] = test system: IGROV1 ovarian
[34] = test system: SK-MEL-28 melanoma
[35] = test system: NCI-H460 lung
[36] = test system: SF-539 CNS
[37] = test system: PC-3 prostate
[38] = test system: CAKI-1 renal
[39] = test system: 786-0 renal
[40] = test system: OVCAR-3 ovarian
[41] = test system: LOX IMVI melanoma
[42] = test system: UACC-257 melanoma
[43] = test system: MDA-MB-435
[44] = test system: MALME-3M melanoma
[45] = test system: HOP-62 NSCLC
[46] = test system: NCI-H226 lung
[47] = test system: SF-295 CNS
[48] = test system: CCRF-CEM leukemia
[49] = test system: HOP-92 NSCLC
[50] = test system: SNB-19 CNS
[51] = test system: SNB-75 CNS
[52] = test system: MCF7 breast
[53] = test system: HT29 colon

Work on `ClCc1ccccc1CSc1ncnc2nc[nH]c12` yielded a GI50 [1] of over 60 µM, a TGI [1] of over 60 µM and a GI50 [2] of over 60 µM. It also gave a TGI [2] of over 60 µM, a GI50 [3] of over 60 µM and a TGI [3] of over 60 µM. For the same compound, the GI50 [4] was over 60 µM, the TGI [4] was over 60 µM and the GI50 [5] was over 60 µM. The TGI [5] was over 60 µM, the GI50 [6] was over 60 µM and the TGI [6] was over 60 µM. For the same compound, the GI50 [7] was over 60 µM, the TGI [7] was over 60 µM and the GI50 [8] was over 60 µM. It also gave a TGI [8] of over 60 µM, a GI50 [9] of over 60 µM and a TGI [9] of over 60 µM. For the same compound, the GI50 [10] was over 60 µM, the TGI [10] was over 60 µM and the GI50 [11] was over 60 µM. It also gave a TGI [11] of over 60 µM, a GI50 [12] of over 60 µM and a TGI [12] of over 60 µM. For the same compound, the GI50 [13] was over 60 µM, the TGI [13] was over 60 µM and the GI50 [14] was over 60 µM. It also gave a TGI [14] of over 60 µM, a GI50 [15] of over 60 µM and a TGI [15] of over 60 µM. The GI50 [16] was over 60 µM, the TGI [16] was over 60 µM and the GI50 [17] was over 60 µM. The TGI [17] was over 60 µM, the GI50 [18] was over 60 µM and the TGI [18] was over 60 µM. The GI50 [19] was over 60 µM, the TGI [19] was over 60 µM and the GI50 [20] was over 60 µM. For the same compound, the TGI [20] was over 60 µM, the GI50 [21] was over 60 µM and the TGI [21] was over 60 µM. The GI50 [22] was over 60 µM, the TGI [22] was over 60 µM and the GI50 [23] was over 60 µM. The TGI [23] was over 60 µM, the GI50 [24] was over 60 µM and the TGI [24] was over 60 µM. It also gave a GI50 [25] of over 60 µM, a TGI [25] of over 60 µM and a GI50 [26] of over 60 µM. The TGI [26] was over 60 µM, the GI50 [27] was over 60 µM and the TGI [27] was over 60 µM. For the same compound, the GI50 [28] was over 60 µM, the TGI [28] was over 60 µM and the GI50 [29] was 54.1 µM. The TGI [29] was over 60 µM, the GI50 [30] was over 60 µM and the TGI [30] was over 60 µM. The GI50 [31] was over 60 µM, the TGI [31] was over 60 µM and the GI50 [32] was over 60 µM. The TGI [32] was over 60 µM, the GI50 [33] was over 60 µM and the TGI [33] was over 60 µM. For the same compound, the GI50 [34] was over 60 µM, the TGI [34] was over 60 µM and the GI50 [35] was over 60 µM. The TGI [35] was over 60 µM, the GI50 [36] was over 60 µM and the TGI [36] was over 60 µM. For the same compound, the GI50 [37] was over 60 µM, the TGI [37] was over 60 µM and the GI50 [38] was over 60 µM. The TGI [38] was over 60 µM, the GI50 [39] was over 60 µM and the TGI [39] was over 60 µM. The GI50 [40] was over 60 µM, the TGI [40] was over 60 µM and the GI50 [41] was over 60 µM. It also gave a TGI [41] of over 60 µM, a GI50 [42] of over 60 µM and a TGI [42] of over 60 µM. The GI50 [43] was over 60 µM, the TGI [43] was over 60 µM and the GI50 [44] was over 60 µM. The TGI [44] was over 60 µM, the GI50 [45] was over 60 µM and the TGI [45] was over 60 µM. It also gave a GI50 [46] of over 60 µM, a TGI [46] of over 60 µM and a GI50 [47] of over 60 µM. The TGI [47] was over 60 µM, the GI50 [48] was over 60 µM and the TGI [48] was over 60 µM. It also gave a GI50 [49] of over 60 µM, a TGI [49] of over 60 µM and a GI50 [50] of over 60 µM. The TGI [50] was over 60 µM, the GI50 [51] was over 60 µM and the TGI [51] was over 60 µM. The GI50 [52] was 53 µM, the TGI [52] was over 60 µM and the GI50 [53] was over 60 µM. It also gave a TGI [53] of over 60 µM.

From PubChem BioAssay (NCI)
